Test results as given in the supplement of paper PMC10307832.

Experiments:
Test in all cases: relative viability (nuclei count vs DMSO), 5 days (fraction); higher = more cells survive
Irinotecan + Bortezomib = compound: CCc1c2c(nc3ccc(OC(=O)N4CCC(N5CCCCC5)CC4)cc13)-c1cc3c(c(=O)n1C2)COC(=O)[C@]3(O)CC [Irinotecan] + CC(C)C[C@H](NC(=O)[C@H](Cc1ccccc1)NC(=O)c1cnccn1)B(O)O [Bortezomib] (partner 0.002 µM)
How it was run: (§1)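 Relative viability divides the nuclei count in treated wells by that in vehicle wells. Lung cancer cell lines were seeded in 1536-well plates, dosed by pin tool the next day, and fixed and stained after 5 days in one step with final 0.05% Triton X-100, 1% formaldehyde and 1 ug/ml Hoechst. Dosing was a single drug or a fixed anchor-drug dose plus five library-drug doses (not always all listed) in √10 steps, and values are medians of duplicate plates imaged at 4×.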

MK-8033 + Crizotinib = compound: Cn1cc(-c2cnc3ccc4ccc(CS(=O)(=O)NCc5ccccn5)cc4c(=O)c3c2)cn1 [MK-8033] + C[C@@H](Oc1cc(-c2cnn(C3CCNCC3)c2)cnc1N)c1c(Cl)ccc(F)c1Cl [Crizotinib] (partner 1 µM)
How it was run: as §1

MK-8033 + Lapatinib = compound: Cn1cc(-c2cnc3ccc4ccc(CS(=O)(=O)NCc5ccccn5)cc4c(=O)c3c2)cn1 [MK-8033] + CS(=O)(=O)CCNCc1ccc(-c2ccc3ncnc(Nc4ccc(OCc5cccc(F)c5)c(Cl)c4)c3c2)o1 [Lapatinib] (partner 2 µM)
How it was run: as §1

MK-8033 + Foretinib = compound: Cn1cc(-c2cnc3ccc4ccc(CS(=O)(=O)NCc5ccccn5)cc4c(=O)c3c2)cn1 [MK-8033] + COc1cc2c(Oc3ccc(NC(=O)C4(C(=O)Nc5ccc(F)cc5)CC4)cc3F)ccnc2cc1OCCCN1CCOCC1 [Foretinib] (partner 0.25 µM)
How it was run: as §1

| Cell Line | relative viability (Irinotecan + Bortezomib; first compound 0.6325 µM) | relative viability (Irinotecan + Bortezomib; first compound 2 µM) | relative viability (Irinotecan + Bortezomib; first compound 6.325 µM) | relative viability (Irinotecan + Bortezomib; first compound 20 µM) | relative viability (MK-8033 + Crizotinib; first compound 0.02 µM) | relative viability (MK-8033 + Crizotinib; first compound 0.06325 µM) | relative viability (MK-8033 + Crizotinib; first compound 0.2 µM) | relative viability (MK-8033 + Crizotinib; first compound 0.6325 µM) | relative viability (MK-8033 + Crizotinib; first compound 2 µM) | relative viability (MK-8033 + Lapatinib; first compound 0.02 µM) | relative viability (MK-8033 + Lapatinib; first compound 0.06325 µM) | relative viability (MK-8033 + Lapatinib; first compound 0.2 µM) | relative viability (MK-8033 + Lapatinib; first compound 0.6325 µM) | relative viability (MK-8033 + Lapatinib; first compound 2 µM) | relative viability (MK-8033 + Foretinib; first compound 0.02 µM) | relative viability (MK-8033 + Foretinib; first compound 0.06325 µM) | relative viability (MK-8033 + Foretinib; first compound 0.2 µM) | relative viability (MK-8033 + Foretinib; first compound 0.6325 µM) | relative viability (MK-8033 + Foretinib; first compound 2 µM) |
| --- | --- | --- | --- | --- | --- | --- | --- | --- | --- | --- | --- | --- | --- | --- | --- | --- | --- | --- | --- |
| NCI-H2009 | 0.294 | 0.515 | 0.228 | 0.0808 | 1.08 | 1.07 | 0.579 | 1.11 | 1.03 | 0.959 | 0.887 | 0.929 | 1.13 | 0.973 | 1.25 | 1.25 | 1.19 | 1.24 | 1.14 |
| HCC-366 | 0.731 | 0.361 | 0.0441 | 0.0691 | 0.45 | 0.525 | 0.59 | 0.363 | 0.504 | 1.04 | 0.994 | 0.972 | 1.05 | 1.05 | 0.965 | 0.864 | 0.929 | 0.965 | 0.962 |
| NCI-H1703 | 0.267 | 0.426 | 0.33 | 0.112 | 0.583 | 0.576 | 0.549 | 0.601 | 0.715 | 1.04 | 1.04 | 0.99 | 0.912 | 1.05 | 0.316 | 0.393 | 0.351 | 0.32 | 0.337 |
| HARA | 0.955 | 0.291 | 0.177 | 0.156 | 0.964 | 1.05 | 0.921 | 1.08 | 1.04 | 0.594 | 0.632 | 0.763 | 0.69 | 0.828 | 0.772 | 0.781 | 0.884 | 0.548 | 0.997 |
| HCC-827 | 1.03 | 0.923 | 0.639 | 0.416 | 0.925 |  | 0.955 | 0.874 | 0.885 | 0.195 |  | 0.188 | 0.184 | 0.218 | 1.1 |  | 0.989 | 0.967 | 1.03 |
| LXF-289 | 0.896 | 0.987 | 0.263 | 0.205 | 0.738 | 0.77 | 0.777 | 0.819 | 0.773 | 0.902 | 0.907 | 0.874 | 0.917 | 0.875 | 0.965 | 0.934 | 0.938 | 1.04 | 0.965 |
| NCI-H460 | 0.677 | 0.353 | 0.0854 | 0.0632 | 0.949 | 0.793 | 0.879 | 0.822 | 0.844 | 0.968 | 0.897 | 0.907 | 1.13 | 0.793 | 1.02 | 0.961 | 0.947 | 1.02 | 1.01 |
| NCI-H2023 | 0.435 | 0.686 | 0.162 | 0.0682 | 0.674 | 0.559 | 0.554 | 0.554 | 0.586 | 0.923 | 0.701 | 0.624 | 0.59 | 0.523 | 0.822 | 0.786 | 0.701 | 0.948 | 0.771 |
| PC-14 | 0.831 | 0.802 | 0.178 | 0.158 | 0.932 | 0.81 | 0.875 | 0.889 | 0.817 | 0.338 | 0.25 | 0.305 | 0.31 | 0.294 | 0.918 | 0.859 | 0.905 | 0.985 | 0.869 |
